The source of these data is PubChem BioAssay AID2743 (NMMLSC, 2010).

Active and inactive are the calls of the source.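 The calls were made as follows: active = fitted half-maximal concentration for change in GFP expression of 33 µM or less; inactive = the rest.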

The assay is described as follows: concentration-dependent AGP1-GFP change, TOR pathway – cell-based, flow cytometry, S. cerevisiae, MLPCN hits, dose response (AID 2743). Particulars: S. cerevisiae AGP1-GFP strain, flow cytometry GFP, 3 h; at 33 µM (top of the series).
For the molecule `O=C(Nc1nnc(-c2ccc(F)cc2)o1)c1cccc([N+](=O)[O-])c1`, the GFP fluorescence (kMESF) was 44.5 kMESF (inactive). The same measure for `CCN(CC(=O)NC(C)(C)C)C(=O)COc1c(Cl)cc(Cl)c2ccc(C)nc12`: 35.5 kMESF (inactive). Next, `COc1ccc(/C=C/C(=O)C2C(=O)C=C(C)OC2=O)cc1O` (configuration not stated): 43 kMESF (inactive).

Regarding `O=C1c2ccccc2C(=O)N1OS(=O)(=O)c1ccc(F)cc1`, the GFP fluorescence (kMESF) was 27 kMESF (inactive). The same measure for `CC(OC(=O)c1ccco1)C(=O)Nc1nc(-c2ccccc2)cs1` (configuration not stated): 40.9 kMESF (inactive); for `CC(C)C[C@]1(c2ccccc2)ON(c2ccccc2C(F)(F)F)C1=O`: 34.6 kMESF (inactive); for `Oc1cc(-c2ccc(N3CCCCC3)nc2)cc2cccnc12`: 31.5 kMESF (inactive). The same measure for `CC[C@@]1(c2ccccc2OC)ON(c2ccccc2C(F)(F)F)C1=O`: 33.2 kMESF (inactive); for `O=c1c2cc(Cl)ccc2nc(-c2ccc([N+](=O)[O-])cc2)n1O`: 23 kMESF (inactive); for `CCN1C(=O)/C(=C\C(=O)c2cccs2)c2cc(Br)ccc21`: 45.3 kMESF (inactive).

In the case of `Cc1ccc(C(=O)O)cc1N=Cc1cc(Br)cc(Br)c1O`, the GFP fluorescence (kMESF) is 27.3 kMESF (inactive). The same measure for `CC(C)(C)C1C/C(=C/c2ccccn2)C(=O)/C(=C/c2ccccn2)C1` (configuration not stated): 32.6 kMESF (inactive); for `CCOC(=O)COc1ccc2ccccc2c1/C=C/[N+](=O)[O-]`: 29.3 kMESF (inactive); for `CCn1c(=O)c(C(C)=O)c(O)c2ccccc21`: 41.4 kMESF (inactive).

As to `O=C1N(c2ccccc2C(F)(F)F)O[C@]1(c1ccccc1)C1CCCC1`, the GFP fluorescence (kMESF) is 32.8 kMESF (inactive). For the molecule `COc1ccc(N2CCN(C(=O)c3ccccc3)CC2)c([N+](=O)[O-])c1`, the GFP fluorescence (kMESF) is 40.6 kMESF (inactive). Next, `O=C(Sc1cccc2cccnc12)c1ccccc1Br`: 37.3 kMESF (inactive); `O=C1ON=C(c2ccccc2)/C1=C/c1ccco1`: 41.7 kMESF (inactive); `Cc1cc(C)c(S(=O)(=O)N2CCC(C(=O)NCc3ccc(Cl)cc3Cl)CC2)c(C)c1`: 37.4 kMESF (inactive). Next, `O=C(c1ccc(Cl)c([N+](=O)[O-])c1)N1CCN(c2ccccc2)CC1`: 62.6 kMESF (inactive).

Turning to `CCCCS(=O)(=O)/C=C\C=C/S(=O)(=O)CCCC`, the GFP fluorescence (kMESF) was 26.3 kMESF (inactive). The same measure for `CCOc1ccc(C(C)=O)cc1N1C(=O)C2C3C=CC(O3)C2C1=O` (configuration not stated): 40.5 kMESF (inactive); for `Cc1ccc(N/N=C(\C#N)C(N)=S)c(C)c1`: 38 kMESF (inactive); for `O=S1(=O)C=C(Sc2nc3ccccc3s2)c2ccccc21`: 34.3 kMESF (inactive).

In the case of `O=C1Nc2ccccc2/C1=C\C(=O)c1ccccc1`, the GFP fluorescence (kMESF) is 38.3 kMESF (inactive).

`COc1ccc(-c2cc3cc(C(=O)O)ccn3c2C(=O)c2ccccc2)cc1`: the GFP fluorescence (kMESF) was 43.2 kMESF (inactive).

Regarding `O=S(=O)(/N=C(/Sc1ccccc1)c1ccccc1)c1ccccc1`, the GFP fluorescence (kMESF) was 41 kMESF (inactive). Next, `Fc1cccc(Nc2ncnc3c2cnn3-c2ccccc2)c1`: 37 kMESF (inactive); `O=c1c(-c2ccc(Cl)cc2)[n+]([O-])c2ccccc2n1O`: 38.1 kMESF (inactive); `CCCc1nnc(NC(=O)c2c(O)c3cccc4c3n(c2=O)CCC4)s1`: 2.53 kMESF (inactive). Next, `Cc1cccc2c1NC(=O)/C2=C\C(=O)c1cccs1`: 43.9 kMESF (inactive).

`COc1ccc([N+](=O)[O-])c(S(=O)(=O)c2ccccc2)n1`: the GFP fluorescence (kMESF) was 47.5 kMESF (inactive). Next, `CC1=C/C(=N\OS(=O)(=O)c2ccccc2)C(C(C)C)=CC1=O`: 28.8 kMESF (inactive); `Cc1cc(=O)n2c3c(sc2n1)C(=O)N(Cc1ccccc1)C3=O`: 44.3 kMESF (inactive); `Cc1ccccc1N=Nc1ccc(O)c2ncccc12`: 31.9 kMESF (inactive). The same measure for `CC1=C(C)/C(=N\OS(=O)(=O)c2ccccc2)C=CC1=O`: 41.6 kMESF (inactive); for `O=C1C=C(c2ccccc2)C(=O)N1Nc1ccccc1`: 40.8 kMESF (inactive).

Take `CCCCCn1c(=O)c(C(=O)Nc2nc3ccccc3[nH]2)c(O)c2ccccc21`: the GFP fluorescence (kMESF) is 36.9 kMESF (inactive). In the case of `O=C(C#Cc1ccccc1)c1ccco1`, the GFP fluorescence (kMESF) was 29.7 kMESF (inactive). Next, `COc1ccc([C@]2(C(C)C)ON(c3ccccc3C(F)(F)F)C2=O)cc1`: 38.8 kMESF (inactive).

Consider `O=C1NC(=O)N(Cc2ccco2)C(=O)/C1=C/c1ccc(-c2cccc([N+](=O)[O-])c2)o1`, for which the GFP fluorescence (kMESF) was 34.8 kMESF (inactive). The same measure for `Cc1ccc(C(=O)NNC(=S)NC(=O)COc2ccccc2)cc1`: 39.8 kMESF (inactive); for `Cc1ccccc1C(=O)NNC(=S)NC(=O)c1ccc(Cl)cc1Cl`: 40.9 kMESF (inactive). Next, `C[n+]1ccc(/C=C/c2c[nH]c3ccccc23)cc1`: 44 kMESF (inactive). The same measure for `CCSc1nnc(NC(=O)c2ccccn2)s1`: 39.6 kMESF (inactive); for `Cc1ccc(C(=O)NNC(=S)NC(=O)c2ccco2)cc1`: 44.1 kMESF (inactive). `CCCCC1OC23CCCCC2C(C#N)(C(=N)O3)C1(C#N)C#N` (configuration not stated): the GFP fluorescence (kMESF) is 43.3 kMESF (inactive). With `CCCCOc1ccc(C(=O)NNC(=S)NC(=O)CC)cc1`, the GFP fluorescence (kMESF) was 39.6 kMESF (inactive). Turning to `O=[N+]([O-])c1cc(Cl)c2cccnc2c1O`, the GFP fluorescence (kMESF) is 22.6 kMESF (inactive). The same measure for `Cn1c(=O)c(C(=O)NNC(=O)c2ccc(Br)cc2)c(O)c2ccccc21`: 26.2 kMESF (inactive); for `O=C(Oc1oc(-c2ccco2)nc1C=Nc1ccccc1)c1ccco1`: 43.5 kMESF (inactive); for `COc1ccc(C=C2C(=O)c3ccccc3C2=O)cc1O`: 34.7 kMESF (inactive).

As for `Cc1ccc(S(=O)(=O)Cc2cc(F)c([N+](=O)[O-])cc2[N+](=O)[O-])cc1`, the GFP fluorescence (kMESF) was 37 kMESF (inactive). Next, `CCCOc1ccc(C(=O)NNC(=S)NC(=O)c2ccco2)cc1`: 50.3 kMESF (inactive).

`CC1(C)C[C@H]2C=C(C=O)[C@]3(C=O)C[C@]3(C)[C@H]2C1`: the GFP fluorescence (kMESF) was 36.7 kMESF (inactive). `CC1=NNC(=O)/C1=C\c1cn(-c2ccccc2)nc1-c1ccccc1`: the GFP fluorescence (kMESF) was 40.4 kMESF (inactive). Next, `COc1ccc(N=Cc2nc(-c3ccccc3)oc2OC(=O)c2ccccc2)cc1`: 39.5 kMESF (inactive); `Cc1ccccc1N1C(=O)C(Cl)=C(N2CCN(c3ccccc3)CC2)C1=O`: 41.1 kMESF (inactive); `CC(C)[C@@]1(c2ccc(Cl)cc2)ON(c2ccccc2C(F)(F)F)C1=O`: 40.5 kMESF (inactive). Next, `Cc1cccc(NC(c2ccc(C)s2)c2ccc3ccc(C)nc3c2O)n1` (configuration not stated): 32.5 kMESF (inactive); `N/C(=N\OC(=O)c1cc(Br)ccc1Cl)c1ccccn1`: 31.3 kMESF (inactive). `CCOC(=O)CS(=O)(=O)c1nc(-c2ccc(F)cc2)cc(C(F)(F)F)n1`: the GFP fluorescence (kMESF) was 50.7 kMESF (inactive). In the case of `O=C(NC(=S)NNC(=O)[C@H]1C[C@@H]1c1ccccc1)c1cccc(F)c1`, the GFP fluorescence (kMESF) was 30.4 kMESF (inactive). Next, `CCCCCCCCC/C(=N\O)c1ccccn1`: 34.8 kMESF (inactive); `COc1ccc(NC2=C(Cl)C(=O)N(CCc3ccccc3)C2=O)c(OC)c1`: 35.3 kMESF (inactive); `CC1=C(C)/C(=N\OS(=O)(=O)c2ccc(C)cc2)C=CC1=O`: 31.9 kMESF (inactive).

Take `COc1ccccc1C(=O)NNC(=S)NC(=O)c1cccs1`: the GFP fluorescence (kMESF) is 48 kMESF (inactive). Next, `N=C1S/C(=C\c2ccco2)C(=O)N1c1nccs1`: 40.4 kMESF (inactive); `O=C(/C=C/c1cccc(Cl)c1)c1nc2ccccc2[nH]1`: 29.7 kMESF (inactive); `Nc1ccccc1C#CC(=O)c1ccccc1`: 31.7 kMESF (inactive). Regarding `O=C1CCN(S(=O)(=O)c2ccccc2)CCN1CCOCc1ccc(F)cc1`, the GFP fluorescence (kMESF) is 33.5 kMESF (inactive). The same measure for `CNC(CC(=O)c1ccc([N+](=O)[O-])cc1)C(Cl)(Cl)Cl` (configuration not stated): 25.2 kMESF (inactive); for `O/C=c1\ccc2cccc3nc(C(F)(F)F)nc1c23`: 40.7 kMESF (inactive). Next, `COc1ccc2c(c1)c(/C=C/c1cc[n+](C)cc1)cn2C`: 46.7 kMESF (inactive); `O=[N+]([O-])c1ccc(S(=O)(=O)c2cccc(C(F)(F)F)c2)nc1`: 37.7 kMESF (inactive); `O=C(COc1ccccc1)NNC(=S)NC(=O)c1ccc(Cl)cc1Cl`: 29.9 kMESF (inactive). Next, `Oc1c(Br)cc(Br)cc1C=Nc1ccc2[nH]ncc2c1`: 37.5 kMESF (inactive); `C/C(=N\NC(=O)c1cc2ccccc2cc1O)c1ccccn1`: 47.9 kMESF (inactive); `COCCN1C(=O)/C(=C/c2ccc(N3CCCC3)cc2C)SC1=S`: 44.5 kMESF (inactive). Consider `O=C(Oc1cccc2cccnc12)c1ccc(Br)o1`, for which the GFP fluorescence (kMESF) is 38.2 kMESF (inactive). Next, `O=[N+]([O-])c1c(Nc2ccccn2)cc(Cl)c2nonc12`: 26.8 kMESF (inactive); `O=C(c1ccccn1)c1conc1C(=O)c1ccc(Br)cc1`: 39.4 kMESF (inactive).
